Laboratory results taken from US9656996B2, “Fused heterocyclic compound, preparation method therefor, pharmaceutical composition, and uses thereof” (SHANGHAI YINGLI PHARMACEUTICAL CO., LTD., priority 2013, dated 2017).

Key:
[1] = biological target: PI3Kα (Homo sapiens (Human), UniProt P42336); assay: PI3Kα enzymatic inhibitory activity IC50 assay; assay type: biochemical; conditions: selectivity ratio
Procedure: (§1) 1. Buffer preparation: 50 mM HEPES, pH 7.5, 3 mM MgCl2, 1 mM EGTA, 100 mM NaCl, 0.03% CHAPS.
(§2) 2. The compound was formulated in 100% DMSO in a concentration gradient, and deposited to a 384-well plate with a final DMSO concentration of 1%.
(§3) 3. PI3Kα, PI3Kδ, PI3Kβ and PI3Kγ enzymes (purchased from EMD Millipore) were diluted to the optimal concentration with the following buffer: 50 mM HEPES, pH 7.5, 3 mM MgCl2, 1 mM EGTA, 100 mM NaCl, 0.03% CHAPS, 2 mM DTT, transferred to a 384-well plate and incubated with the compound for a certain time.
(§4) 4. The substrate was diluted to an optimal concentration with the following buffer: 50 mM HEPES, pH 7.5, 3 mM MgCl2, 1 mM EGTA, 100 mM NaCl, 0.03% CHAPS, 2 mM DTT, 50 μM PIP2, 25 μM ATP and added to the 384-well plate to initiate the reaction. PI3Kα, PI3Kβ and PI3Kγ were allowed to react for 1 h at room temperature, and PI3Kδ reacted for 2 hours at room temperature. Another 10 μL ADP-Glo Detection Reagent also needed to be added for PI3Kβ and PI3Kγ, and then equilibrated at room temperature for 30 minutes.
(§5) 5. Luminescence was read by using Flexstation, and the inhibition rate was calculated as the average value of two tests.

[2] = biological target: PI3Kδ (Homo sapiens (Human), UniProt O00329); assay: PI3Kδ enzymatic inhibitory activity IC50 assay; assay type: biochemical; conditions: luminescence readout, 25 μM ATP, 50 μM PIP2, 2 hours at room temperature
Procedure: as §1, §2, §3, §4, §5

[3] = test system: Raji cell TNF-α generation; assay: Inhibition of human Raji cell TNF-α generation induced by human IgM (ELISA); assay type: cell-based; conditions: Raji cells, IgM stimulation, 24 hours
Procedure: 1. Raji cell line (human Burkitt's lymphoma origin) (ATCC, Cat#CCL-86) was used.
2. Raji cells were applied onto the 96-well plate with 1×10^5/well.
3. The compounds to be screened were diluted to the corresponding test concentration, and added to the cell culture system 30 minutes prior to IgM stimulation.
4. 10 µg/ml IgM monoclonal antibody (JACKSON, Cat#109-006-129) was added to the cell culture system in order to stimulate the cells generating TNF-α.
5. After 24 hours, the amount of TNF-α produced by the cell line was determined by ELISA.
6. The inhibition rates at each concentration of the compound were calculated and plotted to calculate 50% inhibition rate (IC50), and the specific results were shown in table 3.

[4] = biological target: PI3Kγ (Homo sapiens (Human), UniProt P48736); assay: PI3Kγ enzymatic inhibitory activity IC50 assay; assay type: biochemical; conditions: selectivity ratio
Procedure: as §1, §2, §3, §4, §5

[5] = biological target: PI3Kβ (Homo sapiens (Human), UniProt P42338); assay: PI3Kβ enzymatic inhibitory activity IC50 assay; assay type: biochemical; conditions: selectivity ratio
Procedure: as §1, §2, §3, §4, §5

PI3Kα, sequence (P42336 whole entry, species assumed): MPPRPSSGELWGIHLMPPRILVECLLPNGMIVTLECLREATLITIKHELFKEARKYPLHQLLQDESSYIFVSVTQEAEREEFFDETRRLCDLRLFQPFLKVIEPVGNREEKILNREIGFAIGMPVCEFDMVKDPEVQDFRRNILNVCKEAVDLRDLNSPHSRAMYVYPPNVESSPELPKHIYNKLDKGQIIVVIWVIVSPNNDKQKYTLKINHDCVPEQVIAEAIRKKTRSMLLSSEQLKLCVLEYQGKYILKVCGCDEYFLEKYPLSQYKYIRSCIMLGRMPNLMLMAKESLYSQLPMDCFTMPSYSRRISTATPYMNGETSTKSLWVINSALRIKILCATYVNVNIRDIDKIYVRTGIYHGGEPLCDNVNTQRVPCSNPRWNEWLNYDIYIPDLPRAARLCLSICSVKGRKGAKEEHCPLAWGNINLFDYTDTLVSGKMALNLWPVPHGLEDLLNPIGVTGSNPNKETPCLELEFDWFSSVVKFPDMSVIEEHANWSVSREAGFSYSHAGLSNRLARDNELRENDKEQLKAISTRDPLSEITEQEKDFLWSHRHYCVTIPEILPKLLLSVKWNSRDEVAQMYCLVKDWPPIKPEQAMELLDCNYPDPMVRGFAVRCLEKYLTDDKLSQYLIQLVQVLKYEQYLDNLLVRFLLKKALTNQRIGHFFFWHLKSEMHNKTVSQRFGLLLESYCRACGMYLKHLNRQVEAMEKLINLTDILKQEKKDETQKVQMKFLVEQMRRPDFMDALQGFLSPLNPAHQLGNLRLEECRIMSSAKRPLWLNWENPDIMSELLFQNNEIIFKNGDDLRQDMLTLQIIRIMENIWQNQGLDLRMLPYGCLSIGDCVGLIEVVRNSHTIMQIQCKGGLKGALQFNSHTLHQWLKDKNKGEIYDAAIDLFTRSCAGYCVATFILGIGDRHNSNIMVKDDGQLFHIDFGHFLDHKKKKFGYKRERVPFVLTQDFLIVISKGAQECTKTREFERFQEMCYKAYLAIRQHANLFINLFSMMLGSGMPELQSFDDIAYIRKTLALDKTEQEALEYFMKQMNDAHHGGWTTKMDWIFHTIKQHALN
PI3Kα, sequence (P27986 whole entry partner, species assumed): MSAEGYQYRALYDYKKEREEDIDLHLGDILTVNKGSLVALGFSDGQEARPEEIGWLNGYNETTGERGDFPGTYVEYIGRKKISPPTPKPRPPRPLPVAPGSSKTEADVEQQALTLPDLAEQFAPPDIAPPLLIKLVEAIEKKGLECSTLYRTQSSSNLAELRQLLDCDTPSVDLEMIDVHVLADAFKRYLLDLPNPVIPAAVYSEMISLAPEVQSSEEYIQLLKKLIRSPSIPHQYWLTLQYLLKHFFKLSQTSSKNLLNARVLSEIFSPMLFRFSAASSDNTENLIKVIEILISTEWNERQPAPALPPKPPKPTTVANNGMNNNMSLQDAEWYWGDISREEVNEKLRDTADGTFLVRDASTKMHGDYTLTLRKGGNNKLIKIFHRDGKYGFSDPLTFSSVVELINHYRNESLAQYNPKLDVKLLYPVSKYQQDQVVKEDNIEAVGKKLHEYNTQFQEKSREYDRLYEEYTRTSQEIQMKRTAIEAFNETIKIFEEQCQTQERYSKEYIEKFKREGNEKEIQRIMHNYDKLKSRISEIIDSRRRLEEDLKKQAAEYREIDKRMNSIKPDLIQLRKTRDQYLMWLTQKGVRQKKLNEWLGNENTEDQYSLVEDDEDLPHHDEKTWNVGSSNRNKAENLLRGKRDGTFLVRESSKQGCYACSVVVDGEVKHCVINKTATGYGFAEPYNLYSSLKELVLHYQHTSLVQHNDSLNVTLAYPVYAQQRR
PI3Kβ, sequence (P42338 whole entry, species assumed): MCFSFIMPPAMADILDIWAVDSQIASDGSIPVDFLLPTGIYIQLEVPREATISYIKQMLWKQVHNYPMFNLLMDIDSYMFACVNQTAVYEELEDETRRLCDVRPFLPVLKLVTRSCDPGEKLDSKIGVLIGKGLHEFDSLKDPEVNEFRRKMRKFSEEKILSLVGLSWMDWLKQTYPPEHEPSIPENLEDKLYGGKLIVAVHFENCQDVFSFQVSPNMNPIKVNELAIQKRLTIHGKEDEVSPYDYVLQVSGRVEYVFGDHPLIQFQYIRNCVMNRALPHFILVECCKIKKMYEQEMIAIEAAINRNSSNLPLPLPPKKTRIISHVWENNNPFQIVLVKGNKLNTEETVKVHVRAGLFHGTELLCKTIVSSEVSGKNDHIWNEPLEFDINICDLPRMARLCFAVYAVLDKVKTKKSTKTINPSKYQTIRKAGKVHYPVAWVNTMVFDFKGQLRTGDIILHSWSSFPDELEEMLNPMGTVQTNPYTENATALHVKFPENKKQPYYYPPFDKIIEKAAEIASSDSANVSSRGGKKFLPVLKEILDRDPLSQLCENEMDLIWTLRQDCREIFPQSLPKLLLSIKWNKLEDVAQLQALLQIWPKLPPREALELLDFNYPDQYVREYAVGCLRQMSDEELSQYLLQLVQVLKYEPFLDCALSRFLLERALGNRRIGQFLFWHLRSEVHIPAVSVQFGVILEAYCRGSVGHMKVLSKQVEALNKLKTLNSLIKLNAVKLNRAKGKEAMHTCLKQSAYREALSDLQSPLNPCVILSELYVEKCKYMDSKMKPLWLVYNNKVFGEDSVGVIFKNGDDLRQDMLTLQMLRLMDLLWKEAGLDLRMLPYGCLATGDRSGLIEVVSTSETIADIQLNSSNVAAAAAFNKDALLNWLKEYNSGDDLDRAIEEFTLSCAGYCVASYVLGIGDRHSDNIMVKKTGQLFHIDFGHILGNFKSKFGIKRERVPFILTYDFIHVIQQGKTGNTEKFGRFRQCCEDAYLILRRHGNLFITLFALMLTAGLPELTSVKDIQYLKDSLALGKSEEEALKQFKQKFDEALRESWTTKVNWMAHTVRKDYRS
PI3Kβ, sequence (P27986 whole entry partner, species assumed): as the sequence (P27986 whole entry partner, species assumed) above
PI3Kγ, sequence (P48736 whole entry, species assumed): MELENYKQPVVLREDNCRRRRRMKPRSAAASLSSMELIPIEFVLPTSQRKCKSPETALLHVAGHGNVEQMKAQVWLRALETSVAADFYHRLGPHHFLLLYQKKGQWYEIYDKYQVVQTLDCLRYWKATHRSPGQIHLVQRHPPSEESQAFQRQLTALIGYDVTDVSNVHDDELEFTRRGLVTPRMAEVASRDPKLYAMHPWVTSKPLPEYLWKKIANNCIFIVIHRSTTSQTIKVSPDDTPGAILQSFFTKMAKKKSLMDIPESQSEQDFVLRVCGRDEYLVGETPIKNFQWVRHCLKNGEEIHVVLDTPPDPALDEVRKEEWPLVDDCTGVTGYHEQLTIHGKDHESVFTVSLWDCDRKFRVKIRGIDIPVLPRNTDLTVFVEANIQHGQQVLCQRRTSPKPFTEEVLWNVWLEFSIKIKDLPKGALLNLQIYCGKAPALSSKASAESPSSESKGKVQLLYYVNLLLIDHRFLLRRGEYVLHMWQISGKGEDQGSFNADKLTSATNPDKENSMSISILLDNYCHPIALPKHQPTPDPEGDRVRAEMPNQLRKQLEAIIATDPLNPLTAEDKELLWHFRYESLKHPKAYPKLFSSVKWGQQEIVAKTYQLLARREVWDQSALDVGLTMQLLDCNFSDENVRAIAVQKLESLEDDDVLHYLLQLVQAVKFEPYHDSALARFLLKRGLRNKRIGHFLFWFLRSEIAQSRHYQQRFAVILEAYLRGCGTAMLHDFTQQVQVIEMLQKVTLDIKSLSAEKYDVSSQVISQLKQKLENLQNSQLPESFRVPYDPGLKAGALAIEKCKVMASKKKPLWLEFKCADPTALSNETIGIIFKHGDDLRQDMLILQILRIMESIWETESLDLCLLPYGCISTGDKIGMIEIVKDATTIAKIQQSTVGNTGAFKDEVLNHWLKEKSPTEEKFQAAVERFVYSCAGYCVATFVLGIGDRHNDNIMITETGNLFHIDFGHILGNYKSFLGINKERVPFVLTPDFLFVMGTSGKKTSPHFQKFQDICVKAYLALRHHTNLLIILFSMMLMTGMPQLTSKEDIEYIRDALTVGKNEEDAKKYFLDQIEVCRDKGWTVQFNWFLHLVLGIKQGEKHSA
PI3Kδ, sequence (O00329 whole entry, species assumed): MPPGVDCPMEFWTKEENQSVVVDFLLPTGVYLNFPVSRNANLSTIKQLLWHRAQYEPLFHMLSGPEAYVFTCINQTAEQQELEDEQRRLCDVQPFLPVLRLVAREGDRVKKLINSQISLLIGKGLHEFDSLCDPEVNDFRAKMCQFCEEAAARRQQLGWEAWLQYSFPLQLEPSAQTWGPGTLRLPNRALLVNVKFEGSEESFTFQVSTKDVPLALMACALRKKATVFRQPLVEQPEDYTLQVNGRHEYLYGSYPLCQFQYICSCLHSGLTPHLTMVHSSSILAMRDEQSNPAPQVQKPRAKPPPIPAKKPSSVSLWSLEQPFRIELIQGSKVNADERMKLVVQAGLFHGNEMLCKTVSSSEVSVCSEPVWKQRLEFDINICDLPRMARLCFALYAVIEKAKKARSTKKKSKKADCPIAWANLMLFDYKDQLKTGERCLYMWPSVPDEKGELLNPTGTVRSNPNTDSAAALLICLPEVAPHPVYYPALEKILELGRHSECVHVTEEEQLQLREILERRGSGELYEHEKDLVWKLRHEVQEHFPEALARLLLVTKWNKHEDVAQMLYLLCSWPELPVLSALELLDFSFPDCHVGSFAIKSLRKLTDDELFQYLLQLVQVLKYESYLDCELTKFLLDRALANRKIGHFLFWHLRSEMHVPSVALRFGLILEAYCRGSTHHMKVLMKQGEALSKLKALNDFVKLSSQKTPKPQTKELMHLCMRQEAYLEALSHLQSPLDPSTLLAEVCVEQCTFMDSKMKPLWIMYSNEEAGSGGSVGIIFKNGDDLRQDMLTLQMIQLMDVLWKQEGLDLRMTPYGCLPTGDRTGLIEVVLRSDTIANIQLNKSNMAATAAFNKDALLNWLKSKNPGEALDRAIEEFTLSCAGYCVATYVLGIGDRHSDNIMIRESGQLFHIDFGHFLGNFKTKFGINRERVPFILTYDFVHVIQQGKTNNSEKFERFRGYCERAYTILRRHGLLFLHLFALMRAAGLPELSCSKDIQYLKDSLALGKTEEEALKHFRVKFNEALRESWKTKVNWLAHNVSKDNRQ
PI3Kδ, sequence (P27986 whole entry partner, species assumed): as the sequence (P27986 whole entry partner, species assumed) above

| α/δ (ratio of IC50 values against PI3Kα to PI3Kδ) [1] | IC50 [2] [nM] | IC50 [3] [nM] | γ/δ (ratio of IC50 values against PI3Kγ to PI3Kδ) [4] | β/δ (ratio of IC50 values against PI3Kβ to PI3Kδ) [5] | Compound |
| --- | --- | --- | --- | --- | --- |
| 341 | 7.6 | 29.1 |  |  | COc1ncc(-c2nc(N3CCOCC3)nc3c(CN4CCC(C(C)(C)O)CC4)cccc23)cc1NS(C)(=O)=O [Compound 1] |
| 368 | 17 | 92.7 |  |  | COc1ncc(-c2nc(N3CCOCC3)nc3c(CN4CCC(OC)CC4)cccc23)cc1NS(C)(=O)=O [Compound 2] |
| 2 | 45 |  |  |  | C[C@@H](O)C(=O)N1CCN(Cc2cccc3c(-c4cnc(N)nc4)nc(N4CCOCC4)nc23)CC1 [Compound 4] |
| 1 | 58.6 |  |  |  | CS(=O)(=O)N1CCN(Cc2cccc3c(-c4cnc(N)nc4)nc(N4CCOCC4)nc23)CC1 [Compound 5] |
| 2.4 | 457 |  |  |  | CS(=O)(=O)N1CCN(Cc2cccc3c(-c4cccc5[nH]ncc45)nc(N4CCOCC4)nc23)CC1 [Compound 6] |
| 130 | 31 | 34.8 | >322 | 166 | COc1ncc(-c2nc(N3CCOCC3)nc3c(CN4CCC(N5CCCCC5)CC4)cc(F)cc23)cc1NS(C)(=O)=O [Compound 7] |
| 292 | 9.8 | 28.4 |  |  | COc1ncc(-c2nc(N3CCOCC3)nc3c(CN4CCC(N5CCCC5)CC4)cc(F)cc23)cc1NS(C)(=O)=O [Compound 8] |
| 233 | 19 |  |  |  | COc1ncc(-c2nc(N3CCOCC3)nc3c(CN4CCC(N5CCC5)CC4)cc(F)cc23)cc1NS(C)(=O)=O [Compound 9] |
| 320 | 6.4 | 66 | >1000 | 31 | COc1ncc(-c2nc(N3CCOCC3)nc3c(CN4CCC(C(C)(C)O)CC4)cc(F)cc23)cc1NS(C)(=O)=O [Compound 10] |
| 2.3 | 606 |  |  |  | CS(=O)(=O)N1CCN(Cc2cnn3c(-c4cccc5[nH]ncc45)cc(N4CCOCC4)nc23)CC1 [Compound 11] |
| >42 | 239 |  |  |  | CC(C)(O)C1CCN(Cc2cnc3c(-c4cncc(NS(C)(=O)=O)c4)nc(N4CCOCC4)cn23)CC1 [Compound 13] |
| >9 | 1040 |  |  |  | CN1CCN(Cc2cnc3c(-c4cncc(NS(C)(=O)=O)c4)nc(N4CCOCC4)cn23)CC1 [Compound 14] |
| 23 | 345 |  | >29 | >29 | COc1ncc(-c2nc(N3CCOCC3)c3cc(CN4CCC(N5CCCCC5)CC4)ccc3n2)cc1NS(C)(=O)=O [Compound 15] |
| 42 | 15 | 20.1 | >650 | 341 | COc1ncc(-c2nc(N3CCOCC3)c3sc(CN4CCC(N(C)C(C)C)CC4)c(C)c3n2)cc1NS(C)(=O)=O [Compound 16] |
| 38 | 3.4 |  |  |  | COc1ncc(-c2nc(N3CCOCC3)c3sc(CN4CCC(C(C)(C)O)CC4)c(C)c3n2)cc1NS(C)(=O)=O [Compound 17] |
| 11 | 4.2 | 15.2 |  |  | COc1ncc(-c2nc(N3CCOCC3)c3nc(OC4CCN(C5COC5)CC4)n(C)c3n2)cc1NS(C)(=O)=O [Compound 18] |
| 88 | 5 |  |  |  | COc1ncc(-c2nc(N3CCOCC3)c3nc(OC4CN(C5CCCCC5)C4)n(C)c3n2)cc1NS(C)(=O)=O [Compound 19] |

| α/δ (ratio of IC50 values against PI3Kα to PI3Kδ) [1] | IC50 [2] [nM] | IC50 [3] [nM] | γ/δ (ratio of IC50 values against PI3Kγ to PI3Kδ) [4] | β/δ (ratio of IC50 values against PI3Kβ to PI3Kδ) [5] | Compound |
| --- | --- | --- | --- | --- | --- |
| 15 | 4.6 |  |  |  | COc1ncc(-c2nc(N3CCOCC3)c3nc(OC4CCOCC4)n(C)c3n2)cc1NS(C)(=O)=O [Compound 20] |
| 91 | 15.3 |  |  |  | COc1ncc(-c2nc(N3CCOCC3)c3nc(OC4CCC(N5CCCC5)CC4)n(C)c3n2)cc1NS(C)(=O)=O (stereo not shown) [Compound 21] |
| 2 | 31 |  |  |  | Nc1ncc(-c2nc(N3CCOCC3)nc3c(CN4CCN(C(=O)CO)CC4)cc(F)cc23)cn1 [Compound 22] |
| 79 | 16 | 88.7 | >625 | 40 | COc1ncc(-c2nc(N3CCOCC3)nc3c(CN4CCC(N5CCCCC5=O)CC4)cc(F)cc23)cc1NS(C)(=O)=O [Compound 23] |
| 32 | 87 |  |  |  | COc1ncc(-c2nc(N3CCOCC3)nc3c(CN4CCC[C@H]4C(C)(C)O)cc(F)cc23)cc1NS(C)(=O)=O [Compound 26] |
| 83 | 24 | 230 |  |  | COc1ncc(-c2nc(N3CCOCC3)nc3c(CN4CC(C(C)(C)O)C4)cc(F)cc23)cc1NS(C)(=O)=O [Compound 27] |
| 63 | 77 |  | >129 | >129 | COc1ncc(-c2nc(N3CCOCC3)nc3c(OC4CCC(C(C)(C)O)CC4)cc(F)cc23)cc1NS(C)(=O)=O (stereo not shown) [Compound 28] |
| 22 | 19 |  |  |  | COc1ncc(-c2nc(N3CCOCC3)nc3c(CN4CCN(C)C(=O)C4)cc(F)cc23)cc1NS(C)(=O)=O [Compound 29] |
| 15 | 41 | 352 |  |  | COc1ncc(-c2nc(N3CCOCC3)nc3c(O[C@@H]4CCOC4)cc(F)cc23)cc1NS(C)(=O)=O [Compound 30] |
| 24 | 27 |  |  |  | COc1ncc(-c2nc(N3CCOCC3)nc3c(OCC4CCOCC4)cc(F)cc23)cc1NS(C)(=O)=O [Compound 31] |
| 23 | 38 |  |  |  | COc1ncc(-c2nc(N3CCOCC3)nc3c(OC4CCOCC4)cc(F)cc23)cc1NS(C)(=O)=O [Compound 32] |
| 113 | 47.1 | 260 |  |  | COc1ncc(-c2nc(N3CCOCC3)nc3c(OCCN4CCCCC4)cc(F)cc23)cc1NS(C)(=O)=O [Compound 33] |
| 202 | 18.2 | 66 | >549 | 360 | COc1ncc(-c2nc(N3CCOCC3)nc3c(OC4CCC(N5CCCCC5)CC4)cc(F)cc23)cc1NS(C)(=O)=O (stereo not shown) [Compound 34] |
| 227 | 20 | 105 | >500 | 322 | COc1ncc(-c2nc(N3CCOCC3)nc3c(OC4CCC(N5CCCCC5)CC4)cc(F)cc23)cc1NS(C)(=O)=O (stereo not shown) [Compound 35] |
| 42 | 117 |  | >85 | >85 | COc1ncc(-c2nc(N3CCOCC3)nc3c(OC4CC(C(C)(C)O)C4)cc(F)cc23)cc1NS(C)(=O)=O (stereo not shown) [Compound 37] |
| 28 | 15.8 | 32 |  |  | COc1ncc(-c2nc(N3CCOCC3)nc3c(OC4CN(C5CCOCC5)C4)cc(F)cc23)cc1NS(C)(=O)=O [Compound 38] |
| 58 | 22 | 108 |  |  | COc1ncc(-c2nc(N3CCOCC3)nc3c(OC4CN(C(=O)C(C)C)C4)cc(F)cc23)cc1NS(C)(=O)=O [Compound 39] |

| Compound | α/δ (ratio of IC50 values against PI3Kα to PI3Kδ) [1] | IC50 [2] [nM] | IC50 [3] [nM] | γ/δ (ratio of IC50 values against PI3Kγ to PI3Kδ) [4] | β/δ (ratio of IC50 values against PI3Kβ to PI3Kδ) [5] |
| --- | --- | --- | --- | --- | --- |
| COc1ncc(-c2nc(N3CCOCC3)nc3c(CN4CCC(N5CCCCC5)CC4)cccc23)cc1NS(C)(=O)=O [Compound 3] | 119 | 31 | 31.7 |  |  |
| COc1ncc(-c2nc(N3CCOCC3)nc3c(CN4CC[C@@H](N5CCCCC5=O)C4)cc(F)cc23)cc1NS(C)(=O)=O [Compound 24] | 45 | 21 |  |  |  |
